Data: US7943628B2, “Pyrimidine derivatives” (Pfizer Limited, priority 2005, dated 2011)
Where a name gives a salt, the structure may show the parent alone.

Target: T1, histamine H4 receptor (Homo sapiens, UniProt Q9H3N8)
T1 construct: expressed in transfected cells; host or cells: CHO cells
Experiment: H4 binding, method 1 ([3H]-histamine filtration binding on CHO cell membranes)
Conditions: 1.5 h
Procedure, shortened: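 Membranes from CHO cells expressing human H4 receptor (20-35 μg/well) incubated 90 min at room temperature with 3 nM [3H]-histamine in 50 mM Tris-HCl pH 7.4, ± competitor. Bound label separated by filtration on PEI-soaked GF/B filters and counted by scintillation; non-specific binding with 10 μM JNJ7777120.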

inhibition at 10 µM [%] | SMILES | inhibition at 20 µM [%]
24 | CC(C)(C)CCNc1cc(N2CCN(CCO)CC2)ncn1 [Example 307, 2-(4-{6-[(3,3-Dimethylbutyl)amino]pyrimidin-4-yl}piperazin-1-yl)ethanol] | 
100 | CC(C)(C)CNc1cc(N2CCN(C3CCCCC3)CC2)ncn1 [Example 260, 6-(4-Cyclohexylpiperazin-1-yl)-N-(2,2-dimethylpropyl)pyrimidin-4-amine] | 
19 | N[C@@]12C[C@@H]1CN(c1cc(NCC3CC3)ncn1)C2 (relative stereo) [Example 304, (1S*,5R*)-3-{6-[(Cyclopropylmethyl)amino]pyrimidin-4-yl}-3-azabicyclo[3.1.0]hexan-1-amine] | 

Second part, the compound before the results:

SMILES | inhibition at 10 µM [%] | inhibition at 20 µM [%]
CCCNc1cc(N2CCN[C@H](C)C2)ncn1 [Example 313, 6-[(3R)-3-Methylpiperazin-1-yl]-N-propylpyrimidin-4-amine] |  | 70
Nc1nc(NCc2cc(F)ccc2F)cc(N2CC[C@@H](N)C2)n1 [Example 311, 6-[(3R)-3-Aminopyrrolidin-1-yl]-N^4-(2,5-difluorobenzyl)pyrimidine-2,4-diamine] |  | 80
CNC1CN(c2cc(N3CCOCC3)nc(N)n2)C1 [Example 268, 4-[3-(Methylamino)azetidin-1-yl]-6-morpholin-4-ylpyrimidin-2-amine] | 16 | 

Same assay, conditions: H4 binding, method 1; Ki calculated from IC50 (Cheng-Prussoff)

Ki [nM] | SMILES
46.4 | CNCC1CN(c2cc(NCC(C)(C)C)nc(N)n2)C1 [Example 209, N^4-(2,2-Dimethylpropyl)-6-{3-[(methylamino)methyl]azetidin-1-yl}pyrimidine-2,4-diamine]
17.3 | CCCCNc1cc(N2CC[C@@H](NC)C2)ncn1 [Example 147, N-Butyl-6-[(3R)-3-(methylamino)pyrrolidin-1-yl]pyrimidin-4-amine]
16.9 | CC[C@@H](C)Nc1cc(N2CC[C@@H](NC)C2)nc(N)n1 [Example 152, 6-[(3R)-3-(Methylamino)pyrrolidin-1-yl]-N^4-[(1R)-1-methylpropyl]pyrimidine-2,4-diamine]
3.79 | CCNc1cc(N2CC(NC)C2)nc(N)n1 [Example 70, N^4-Ethyl-6-[3-(methylamino)azetidin-1-yl]pyrimidine-2,4-diamine]
1230 | CN[C@@H]1CCN(c2cc(NCc3ccc(F)c(F)c3)nc(N)n2)C1 [Example 277, N^4-(3,4-Difluorobenzyl)-6-[(3R)-3-(methylamino)pyrrolidin-1-yl]pyrimidine-2,4-diamine]
115 | CNCC1CN(c2cc(NCC3CC3)nc(N)n2)C1 [Example 227, N^4-(Cyclopropylmethyl)-6-{3-[(methylamino)methyl]azetidin-1-yl}pyrimidine-2,4-diamine]
6010 | c1nc(NC[C@H]2CCCO2)cc(N[C@H]2CCNC2)n1 [Example 319, N-[(3S)-Pyrrolidin-3-yl]-N′-[(2R)-tetrahydrofuran-2-ylmethyl]pyrimidine-4,6-diamine]
16.8 | CN(C)CCNc1cc(NCC(C)(C)C)nc(N)n1 [Example 144, N^4-[2-(Dimethylamino)ethyl]-N^6-(2,2-dimethylpropyl)pyrimidine-2,4,6-triamine]
2.75 | CC[C@H](C)Nc1cc(N2CC(NC)C2)nc(N)n1 [Example 161, 6-[3-(Methylamino)azetidin-1-yl]-N^4-[(1S)-1-methylpropyl]pyrimidine-2,4-diamine]
10.1 | CNC1CN(c2cc(N3CCC(C)CC3)nc(N)n2)C1 [Example 173, 4-[3-(Methylamino)azetidin-1-yl]-6-(4-methylpiperidin-1-yl)pyrimidin-2-amine]
30.4 | CNC1CN(c2cc(NCc3ccc(F)c(F)c3)nc(N)n2)C1 [Example 233, N^4-(3,4-Difluorobenzyl)-6-[3-(methylamino)azetidin-1-yl]pyrimidine-2,4-diamine]
0.805 | CCC(C)CNc1cc(N2CC(NC)C2)nc(N)n1 (stereo not drawn) [Example 128, 6-[3-(Methylamino)azetidin-1-yl]-N^4-(2-methylbutyl)pyrimidine-2,4-diamine]
39.3 | CCNc1cc(N2CC[C@H](NC)C2)nc(N)n1 [Example 205, N^4-Ethyl-6-[(3S)-3-(methylamino)pyrrolidin-1-yl]pyrimidine-2,4-diamine]
17.6 | CN[C@@H]1CCN(c2cc(NC3CCC3)ncn2)C1 [Example 181, N-Cyclobutyl-6-[(3R)-3-(methylamino)pyrrolidin-1-yl]pyrimidin-4-amine]
39 | CN[C@H]1CCN(c2cc(NCC3CC3)nc(N)n2)C1 [Example 204, N^4-(Cyclopropylmethyl)-6-[(3S)-3-(methylamino)pyrrolidin-1-yl]pyrimidine-2,4-diamine]
235 | CN1CCCN(c2cc(NCC(C)(C)C)ncn2)CC1 [Example 239, N-(2,2-Dimethylpropyl)-6-(4-methyl-1,4-diazepan-1-yl)pyrimidin-4-amine]

Further lines, the compound ahead of its results:

SMILES | Ki [nM]
CNc1cc(N2CC[C@@H]3NCC[C@@H]3C2)nc(N)n1 (racemic) [Example 200, N^4Methyl-6-[(3aR*,7aS*)-octahydro-5H-pyrrolo[3,2-c]pyridin-5-yl]pyrimidine-2,4-diamine] | 34
CC(C)CCNc1cc(N2CCN(C)CC2)ncn1 [Example 100, N-(3-Methylbutyl)-6-(4-methylpiperazin-1-yl)pyrimidin-4-amine] | 40.2
CC(C)(C)CNc1cc(N2CCNCC2)nc(N)n1 [Example 156, N^4-(2,2-Dimethylpropyl)-6-piperazin-1-ylpyrimidine-2,4-diamine] | 2.44
Nc1nc(NCC2CC2)cc(N2CC[C@@H]3NCC[C@@H]3C2)n1 (racemic) [Example 188, N^4-(Cyclopropylmethyl)-6-[(3aR*,7aS*)-octahydro-5H-pyrrolo[3,2-c]pyridin-5-yl]pyrimidine-2,4-diamine] | 25.5
CC(C)(C)CNc1cc(N2CC[C@@H]3NCC[C@@H]3C2)nc(N)n1 (racemic) [Example 162, N^4-(2,2-Dimethylpropyl)-6-[(3aR*,7aS*)-octahydro-5H-pyrrolo[3,2-c]pyridin-5-yl]pyrimidine-2,4-diamine] | 2.91
CNC1CN(c2cc(NCC(C)(C)C)nc(N)n2)C1 [Example 159, N^4-(2,2-Dimethylpropyl)-6-[3-(methylamino)azetidin-1-yl]pyrimidine-2,4-diamine hydrochloride] | 2.62
CCCNc1cc(N2CCNCC2)nc(N)n1 [Example 163, 6-Piperazin-1-yl-N^4-propylpyrimidine-2,4-diamine] | 3.78
CC(C)(C)CNc1cc(N2CC(N)C2)nc(N)n1 [Example 190, 6-(3-Aminoazetidin-1-yl)-N^4-(2,2-dimethylpropyl)pyrimidine-2,4-diamine] | 27.7
CCNc1cc(N2CCNCC2)nc(N)n1 [Example 214, N^4-Ethyl-6-piperazin-1-ylpyrimidine-2,4-diamine] | 54.4
CN(C)CCNc1cc(NCC2CC2)nc(N)n1 [Example 176, N^4-(Cyclopropylmethyl)-N6-[2-(dimethylamino)ethyl]pyrimidine-2,4,6-triamine] | 15.1
NCCNc1cc(NCC2CC2)ncn1 [Example 220, N-(2-Aminoethyl)-N′-(cyclopropylmethyl)pyrimidine-4,6-diamine] | 88
CC(C)Nc1cc(N2CC[C@@H]3NCC[C@@H]3C2)nc(N)n1 (racemic) [Example 137, N^4-Isopropyl-6-[(3aR*,7aS*)-octahydro-5H-pyrrolo[3,2-c]pyridin-5-yl]pyrimidine-2,4-diamine] | 8.25
CC(C)(C)Nc1cc(N2C[C@@H]3CCCN[C@@H]3C2)nc(N)n1 (relative stereo) [Example 150, N^4-(tert-Butyl)-6-[(4aS*,7aS*)-octahydro-6H-pyrrolo[3,4-b]pyridin-6-yl]pyrimidine-2,4-diamine] | 11.8
CNC1CN(c2cc(NC3CC3)ncn2)C1 [Example 189, N-Cyclopropyl-6-[3-(methylamino)azetidin-1-yl]pyrimidin-4-amine] | 25.8
CN1C[C@@H]2C[C@H]1CN2c1cc(NCCC(C)(C)C)ncn1 [Example 5, N-(3,3-Dimethylbutyl)-6-[(1S,4S)-5-methyl-2,5-diazabicyclo[2.2.1]hept-2-yl]pyrimidin-4-amine] | 263
Nc1nc(NCC2CCCC2)cc(N2CC[C@@H](N)C2)n1 [Example 218, 6-[(3R)-3-Aminopyrrolidin-1-yl]-N^4-(cyclopentylmethyl)pyrimidine-2,4-diamine] | 80.7
CC(C)Nc1cc(N2CCNCC2)nc(N)n1 [Example 187, N^4-Isopropyl-6-piperazin-1-ylpyrimidine-2,4-diamine] | 22.4
Nc1nc(NCC2CC2)cc(N2C[C@@H]3CCCN[C@@H]3C2)n1 [Example 210, N^4-(Cyclopropylmethyl)-6-[(4aS,7aS)-octahydro-6H-pyrrolo[3,4-b]pyridin-6-yl]pyrimidine-2,4-diamine] | 48.9

Same assay, conditions: at 6.3 μM

Method 1, % at 6.3 μM [% at 6.3 μM] | SMILES
46 | CNc1cc(N2CCC(C)(N)C2)nc(N)n1 (stereo not drawn) [Example 320, 6-(3-Amino-3-methylpyrrolidin-1-yl)-N^4-methylpyrimidine-2,4-diamine]

Same assay, conditions: top dose 6.3 μM

Method 1, activity at top dose (6.3 μM) | SMILES
No activity at top | CN[C@@H]1CCN(c2ncnc(NCC3CC3)c2C)C1 [Example 291, N-(Cyclopropylmethyl)-5-methyl-6-[(3R)-3-(methylamino)pyrrolidin-1-yl]pyrimidin-4-amine]

Same assay, conditions: top dose 10 μM

Method 1, activity at top dose (10 μM) | SMILES
No activity at top | c1nc(NCC2CC2)cc(N2CCN(C3CCCCC3)CC2)n1 [Example 305, 6-(4-Cyclohexylpiperazin-1-yl)-N-(cyclopropylmethyl)pyrimidin-4-amine]
No activity at top | CNC1CN(c2cc(NCc3cc(F)cc(F)c3)nc(N)n2)C1 [Example 316, N^4-(3,5-Difluorobenzyl)-6-[3-(methylamino)azetidin-1-yl]pyrimidine-2,4-diamine]

SMILES | Method 1, activity at top dose (10 μM)
C[C@@H]1CN(c2cc(NCC3CC3)nc(N)n2)CCN1 [Example 310, N^4-(Cyclopropylmethyl)-6-[(3R)-3-methylpiperazin-1-yl]pyrim idine-2,4-diamine] | No activity at top
